| melting point [°C] | SMILES |
| --- | --- |
| 108.7 to 109.4 | CN1C2CCC1CN(C(=O)c1ccc(-c3cccc(C(F)(F)F)c3)o1)C2.O=C(O)/C=C/C(=O)O |
| 150 to 155 | CN1C2CCC1CN(C(=O)c1cc3ccccc3o1)C2.O=C(O)/C=C/C(=O)O |
| 197 to 207 | CN1C2CCC1CN(C(=O)c1ccc(-c3ccccc3)cc1)C2.O=C(O)/C=C/C(=O)O |
| 189 to 193 | CC(=O)Nc1cccc(-c2ccc(C(=O)N3CC4CCC(C3)N4C)o2)c1.O=C(O)/C=C/C(=O)O |
